Values of other authors as cited in patent publication US20260232776A1, “COMBINATIONS OF DENDRITIC CELL-BASED VACCINES AND CHECKPOINT INHIBITORS” (Mayo Foundation for Medical Education and Research, priority 2023, published 2026).

Test system: p44/p42 MAPK or SAPK/JNK

C[S+]([O-])c1ccc(-c2nc(-c3ccncc3)c(-c3ccc(F)cc3)[nH]2)cc1 (stereo not shown) [SBA203580, adezmapimod]
activity against other MAPKs such as p44/p42 MAPK or SAPK/JNK: little activity
